# Reference: US20230372263A1, “METHODS AND COMPOSITIONS FOR TREATING AMYOTROPHIC LATERAL SCLEROSIS” (Amylyx Pharmaceuticals, Inc., priority 2022, published 2023)
# Where two headings read alike, the source gives them in different places.
# Assay: Phase I single dose oral AMX0035 fasted/fed plasma pharmacokinetics and food effect (Protocol A35-002)
# Type: in vivo, human
# Details: for Frel AUC(0-inf) / Frel AUC(0-last) / Frel Cmax: fed relative to fasted
# In short: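 Healthy adults (n=14) received a single oral dose in the morning on two occasions, fasted ≥10 h or 30 min after starting a high-fat breakfast. About 21 venous K2EDTA samples per subject were taken over 24 h and processed to plasma. PK parameters were calculated from actual elapsed times after dosing.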
# [1] = single dose AMX0035 fasted, Geometric Mean
# [2] = single dose AMX0035 fasted, Max
# [3] = single dose AMX0035 fasted, Median
# [4] = single dose AMX0035 fasted, Min
# [5] = single dose AMX0035 fed, Geometric Mean
# [6] = single dose AMX0035 fed, Median
smiles,measurement,setting,value
"O=C(O)Cc1ccccc1 [PAA, phenylacetate]",T1/2,"Table 1: fasted, geometric mean (CV%), terminal half-life",48.8 min
same,Tmax,"Table 1: fasted, median (range)",150 min
same,AUC(0-inf),"both sexes, human, in vivo, Table 1: fasted, geometric mean (CV%), read-out: AUC(0-inf)",83400 ng·h/mL
same,half-life,"both sexes, human, in vivo, Table 1: fasted, geometric mean (CV%), terminal half-life, read-out: T1/2 (converted)",48.6 min
same,half-life,"both sexes, human, in vivo, fasted, read-out: elimination half-lives (range)",41.4 to 57 min
same,half-life,"both sexes, human, in vivo, fed, read-out: elimination half-lives (range)",36 to 62.4 min
same,Cmax,"both sexes, human, in vivo, po, Table 1: single oral dose ALBRIOZA, healthy subjects, fasted, geometric mean (CV%), read-out: Cmax",26400 ng/mL
same,AUC(0-inf),"both sexes, human, in vivo, po, single oral AMX0035, Fasted (N = 13), healthy subjects, PK analysis subset, read-out: AUC(0-inf), Adj Geo Mean",84800 ng·h/mL
same,AUC(0-t),"both sexes, human, in vivo, po, single oral AMX0035, Fasted (N = 13), healthy subjects, PK analysis subset, read-out: AUC(0-last), Adj Geo Mean",83200 ng·h/mL
same,Cmax,"both sexes, human, in vivo, po, single oral AMX0035, Fasted (N = 13), healthy subjects, PK analysis subset, read-out: Cmax, Adj Geo Mean",26600 ng/mL
same,AUC(0-inf),"both sexes, human, in vivo, po, single oral AMX0035, Fed (N = 13), healthy subjects, PK analysis subset, read-out: AUC(0-inf), Adj Geo Mean",59800 ng·h/mL
same,AUC(0-t),"both sexes, human, in vivo, po, single oral AMX0035, Fed (N = 13), healthy subjects, PK analysis subset, read-out: AUC(0-last), Adj Geo Mean",58200 ng·h/mL
same,Cmax,"both sexes, human, in vivo, po, single oral AMX0035, Fed (N = 13), healthy subjects, PK analysis subset, read-out: Cmax, Adj Geo Mean",16100 ng/mL
same,Cmax,"both sexes, human, in vivo, single dose AMX0035, healthy subjects, fasting, read-out: mean Cmax",26400 ng/mL
same,AUC(0-inf),"both sexes, human, in vivo, single dose AMX0035 fasted, Geometric Mean, read-out: AUC(0-inf)",83400 ng·h/mL
same,AUC(0-t),"both sexes, human, in vivo, single dose AMX0035 fasted, Geometric Mean, read-out: AUC(0-last)",81800 ng·h/mL
same,Cmax,"both sexes, human, in vivo, single dose AMX0035 fasted, Geometric Mean, read-out: Cmax",26400 ng/mL
same,half-life,"both sexes, human, in vivo, single dose AMX0035 fasted, Geometric Mean, read-out: T1/2 (converted)",48.8 min
same,AUC(0-inf),"both sexes, human, in vivo, single dose AMX0035 fasted, Median, read-out: AUC(0-inf)",80700 ng·h/mL
same,AUC(0-t),"both sexes, human, in vivo, single dose AMX0035 fasted, Median, read-out: AUC(0-last)",79300 ng·h/mL
same,Cmax,"both sexes, human, in vivo, single dose AMX0035 fasted, Median, read-out: Cmax",27700 ng/mL
same,half-life,"both sexes, human, in vivo, single dose AMX0035 fasted, Median, read-out: T1/2 (converted)",50 min
same,AUC(0-inf),"both sexes, human, in vivo, single dose AMX0035 fed, Geometric Mean, read-out: AUC(0-inf)",58300 ng·h/mL
same,AUC(0-t),"both sexes, human, in vivo, single dose AMX0035 fed, Geometric Mean, read-out: AUC(0-last)",56700 ng·h/mL
same,Cmax,"both sexes, human, in vivo, single dose AMX0035 fed, Geometric Mean, read-out: Cmax",15900 ng/mL
same,half-life,"both sexes, human, in vivo, single dose AMX0035 fed, Geometric Mean, read-out: T1/2 (converted)",46.8 min
same,AUC(0-inf),"both sexes, human, in vivo, single dose AMX0035 fed, Median, read-out: AUC(0-inf)",54500 ng·h/mL
same,AUC(0-t),"both sexes, human, in vivo, single dose AMX0035 fed, Median, read-out: AUC(0-last)",53100 ng·h/mL
same,Cmax,"both sexes, human, in vivo, single dose AMX0035 fed, Median, read-out: Cmax",16000 ng/mL
same,half-life,"both sexes, human, in vivo, single dose AMX0035 fed, Median, read-out: T1/2 (converted)",47 min
same,Tmax,"both sexes, human, in vivo, non parametric analysis, PK analysis subset, Fasted, read-out: Tmax Median",150 min
same,peak exposure to metabolite as % of that for parent,fasted,approximately 14%
same,time from which plasma concentrations were evident,fasted,0.25 h
same,total exposure to metabolite based on AUC(0-inf) as % of that for parent,fasted,approximately 35%
same,peak exposure to metabolite as % of that for parent,fed,approximately 34%
same,total exposure to metabolite based on AUC(0-inf) as % of that for parent,fed,approximately 48%
same,Frel AUC(0-inf),Geometric Mean,70.606%
same,Frel AUC(0-last),Geometric Mean,70.024%
same,Frel Cmax,Geometric Mean,60.480%
same,Frel AUC(0-inf),Max,91.45%
same,Frel AUC(0-last),Max,91.27%
same,Frel Cmax,Max,86.29%
same,Frel AUC(0-inf),Median,70.563%
same,Frel AUC(0-last),Median,69.952%
same,Frel Cmax,Median,58.065%
same,Frel AUC(0-inf),Min,58.16%
same,Frel AUC(0-last),Min,57.31%
same,Frel Cmax,Min,45.73%
same,Tmax Median,"non parametric analysis, PK analysis subset, Fed",150 min
same,AUCextrap,[1],1.779%
same,Lambda-z,[1],0.8527 h⁻¹
same,AUC(0-inf),[2],142000 ng·h/mL
same,AUC(0-last),[2],141000 ng·h/mL
same,AUCextrap,[2],3.18%
same,Lambda-z,[2],0.9999 h⁻¹
same,T1/2,[2],57 min
same,Tmax,[2],210 min
same,AUCextrap,[3],1.963%
same,Lambda-z,[3],0.8310 h⁻¹
same,Tmax,[3],150 min
same,AUC(0-inf),[4],45200 ng·h/mL
same,AUC(0-last),[4],43800 ng·h/mL
same,AUCextrap,[4],1.06%
same,Lambda-z,[4],0.7287 h⁻¹
same,T1/2,[4],41.4 min
same,Tmax,[4],90 min
same,AUCextrap,[5],2.485%
same,Lambda-z,[5],0.8886 h⁻¹
same,AUC(0-inf),"single dose AMX0035 fed, Max",130000 ng·h/mL
same,AUC(0-last),"single dose AMX0035 fed, Max",128000 ng·h/mL
same,AUCextrap,"single dose AMX0035 fed, Max",4.13%
same,Lambda-z,"single dose AMX0035 fed, Max",1.1486 h⁻¹
same,T1/2,"single dose AMX0035 fed, Max",62.4 min
same,Tmax,"single dose AMX0035 fed, Max",270 min
same,AUCextrap,[6],2.680%
same,Lambda-z,[6],0.8899 h⁻¹
same,Tmax,[6],150 min
same,AUC(0-inf),"single dose AMX0035 fed, Min",31900 ng·h/mL
same,AUC(0-last),"single dose AMX0035 fed, Min",30600 ng·h/mL
same,AUCextrap,"single dose AMX0035 fed, Min",1.26%
same,Lambda-z,"single dose AMX0035 fed, Min",0.6696 h⁻¹
same,T1/2,"single dose AMX0035 fed, Min",36 min
same,Tmax,"single dose AMX0035 fed, Min",120 min
same,higher exposure in females compared to males,"single oral dose, fed and fasted",~31%
